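Tested at 5 concentrations; 48 h exposure; 96-well plates; endpoints linearly interpolated, else capped at highest concentration. TGI is the concentration that stops growth completely.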
Key:
Assay in all cases: NCI tumour cell line growth inhibition, 48 h
OVCAR-4 ovarian = tested on: OVCAR-4 ovarian
NCI-H226 lung = tested on: NCI-H226 lung
OVCAR-5 ovarian = tested on: OVCAR-5 ovarian
SK-MEL-28 melanoma = tested on: SK-MEL-28 melanoma
CAKI-1 renal = tested on: CAKI-1 renal
EKVX NSCLC = tested on: EKVX NSCLC
SK-MEL-2 melanoma = tested on: SK-MEL-2 melanoma
MDA-MB-435 = tested on: MDA-MB-435
SR leukemia = tested on: SR leukemia
PC-3 prostate = tested on: PC-3 prostate
RPMI-8226 leukemia = tested on: RPMI-8226 leukemia
HS 578T breast = tested on: HS 578T breast
SF-268 CNS = tested on: SF-268 CNS
RXF 393 renal = tested on: RXF 393 renal
HCC-2998 colon = tested on: HCC-2998 colon
IGROV1 ovarian = tested on: IGROV1 ovarian

CCC(NC(C)c1ccccc1)C(O)c1ccc(OCc2ccccc2)c(OCc2ccccc2)c1 (centres undefined)
TGI (OVCAR-4 ovarian): 33.5 µM
TGI (NCI-H226 lung): 36.3 µM
TGI (OVCAR-5 ovarian): 26.3 µM
TGI (SK-MEL-28 melanoma): 36 µM
TGI (CAKI-1 renal): 24.4 µM
TGI (EKVX NSCLC): 31.2 µM
TGI (SK-MEL-2 melanoma): 29.1 µM
TGI (MDA-MB-435): 26.7 µM
TGI (SR leukemia): 5.58 µM
TGI (PC-3 prostate): 27.4 µM
TGI (RPMI-8226 leukemia): 10.7 µM
TGI (HS 578T breast): 46.9 µM
TGI (SF-268 CNS): 36.4 µM
TGI (RXF 393 renal): 23 µM
TGI (HCC-2998 colon): 6.49 µM
TGI (IGROV1 ovarian): 33.9 µM

COc1c2c(cc3oc(C)cc(=O)c13)OC(=N)C(C(N)=O)C2CC(=O)c1ccc(N)cc1 (centres undefined)
TGI (OVCAR-4 ovarian): > 100 µM
TGI (NCI-H226 lung): > 100 µM
TGI (OVCAR-5 ovarian): > 100 µM
TGI (SK-MEL-28 melanoma): > 100 µM
TGI (CAKI-1 renal): > 100 µM
TGI (EKVX NSCLC): > 100 µM
TGI (SK-MEL-2 melanoma): > 100 µM
TGI (MDA-MB-435): > 100 µM
TGI (SR leukemia): > 100 µM
TGI (PC-3 prostate): > 100 µM
TGI (RPMI-8226 leukemia): > 100 µM
TGI (HS 578T breast): > 100 µM
TGI (SF-268 CNS): > 100 µM
TGI (RXF 393 renal): > 100 µM
TGI (HCC-2998 colon): > 100 µM
TGI (IGROV1 ovarian): > 100 µM

CC12Nc3ccccc3N1C(=O)c1ccccc12 (centres undefined)
TGI (OVCAR-4 ovarian): > 100 µM
TGI (NCI-H226 lung): > 100 µM
TGI (OVCAR-5 ovarian): > 100 µM
TGI (SK-MEL-28 melanoma): > 100 µM
TGI (CAKI-1 renal): > 100 µM
TGI (EKVX NSCLC): > 100 µM
TGI (SK-MEL-2 melanoma): > 100 µM
TGI (MDA-MB-435): > 100 µM
TGI (SR leukemia): > 100 µM
TGI (PC-3 prostate): > 100 µM
TGI (RPMI-8226 leukemia): > 100 µM
TGI (HS 578T breast): > 100 µM
TGI (SF-268 CNS): > 100 µM
TGI (RXF 393 renal): > 100 µM
TGI (HCC-2998 colon): > 100 µM
TGI (IGROV1 ovarian): > 100 µM

COC(=O)c1ccc2c(O)c(O)ccc2c1
TGI (OVCAR-4 ovarian): 28.3 µM
TGI (NCI-H226 lung): 46.1 µM
TGI (OVCAR-5 ovarian): 36.5 µM
TGI (SK-MEL-28 melanoma): 31.4 µM
TGI (CAKI-1 renal): 47.3 µM
TGI (EKVX NSCLC): 53.5 µM
TGI (SK-MEL-2 melanoma): 13.8 µM
TGI (MDA-MB-435): 3.3 µM
TGI (SR leukemia): 7.06 µM
TGI (PC-3 prostate): 12.5 µM
TGI (RPMI-8226 leukemia): 61.2 µM
TGI (HS 578T breast): > 69.2 µM
TGI (SF-268 CNS): 33.9 µM
TGI (RXF 393 renal): 31.4 µM
TGI (HCC-2998 colon): 29.6 µM
TGI (IGROV1 ovarian): 31.6 µM

[N-]=[N+]=Nc1c(-c2ccccc2)c(Cl)nc2ccccc12
TGI (OVCAR-4 ovarian): > 100 µM
TGI (NCI-H226 lung): > 100 µM
TGI (OVCAR-5 ovarian): > 100 µM
TGI (SK-MEL-28 melanoma): > 100 µM
TGI (CAKI-1 renal): > 100 µM
TGI (EKVX NSCLC): > 100 µM
TGI (SK-MEL-2 melanoma): > 100 µM
TGI (MDA-MB-435): > 100 µM
TGI (SR leukemia): > 100 µM
TGI (PC-3 prostate): > 100 µM
TGI (RPMI-8226 leukemia): > 100 µM
TGI (HS 578T breast): > 100 µM
TGI (SF-268 CNS): > 100 µM
TGI (RXF 393 renal): > 100 µM
TGI (HCC-2998 colon): > 100 µM
TGI (IGROV1 ovarian): > 100 µM

CCC1C(c2cc(OC)c(OC)c(OC)c2)c2cc3c(cc2OC1N1CCCC1)OCO3 (centres undefined)
TGI (OVCAR-4 ovarian): > 76 µM
TGI (NCI-H226 lung): 8.78 µM
TGI (OVCAR-5 ovarian): 57.4 µM
TGI (SK-MEL-28 melanoma): 60.6 µM
TGI (CAKI-1 renal): 9.8 µM
TGI (EKVX NSCLC): 59.8 µM
TGI (SK-MEL-2 melanoma): 13 µM
TGI (MDA-MB-435): 1.07 µM
TGI (SR leukemia): > 47.6 µM
TGI (PC-3 prostate): > 37.6 µM
TGI (RPMI-8226 leukemia): 26.2 µM
TGI (HS 578T breast): 14.1 µM
TGI (SF-268 CNS): 33 µM
TGI (RXF 393 renal): 9.31 µM
TGI (HCC-2998 colon): 8.16 µM
TGI (IGROV1 ovarian): 17.8 µM

O=C(O[C@H]1[C@@H](O)[C@H](n2cnc3c(Cl)ncnc32)O[C@@H]1COC(c1ccccc1)(c1ccccc1)c1ccccc1)c1ccccc1
TGI (OVCAR-4 ovarian): > 100 µM
TGI (NCI-H226 lung): > 100 µM
TGI (OVCAR-5 ovarian): > 100 µM
TGI (SK-MEL-28 melanoma): > 100 µM
TGI (CAKI-1 renal): 10.1 µM
TGI (EKVX NSCLC): 32.3 µM
TGI (SK-MEL-2 melanoma): 49.7 µM
TGI (MDA-MB-435): > 100 µM
TGI (SR leukemia): 18.6 µM
TGI (PC-3 prostate): 24.5 µM
TGI (RPMI-8226 leukemia): 5.39 µM
TGI (HS 578T breast): 8.78 µM
TGI (SF-268 CNS): 61.3 µM
TGI (RXF 393 renal): 48.1 µM
TGI (HCC-2998 colon): 41.9 µM
TGI (IGROV1 ovarian): > 100 µM

Cc1ccc(N2C(=O)C3c4[nH]c5ccccc5c4C4CCC(C(C)(C)C)CC4C3C2=O)cc1 (centres undefined)
TGI (OVCAR-4 ovarian): 22.7 µM
TGI (NCI-H226 lung): 33.2 µM
TGI (OVCAR-5 ovarian): 39.3 µM
TGI (SK-MEL-28 melanoma): 49 µM
TGI (CAKI-1 renal): 23.2 µM
TGI (EKVX NSCLC): 42.4 µM
TGI (SK-MEL-2 melanoma): 44.6 µM
TGI (MDA-MB-435): 42 µM
TGI (SR leukemia): 16.6 µM
TGI (PC-3 prostate): 31.8 µM
TGI (RPMI-8226 leukemia): > 41.5 µM
TGI (HS 578T breast): 16.9 µM
TGI (SF-268 CNS): 18.9 µM
TGI (RXF 393 renal): 22.1 µM
TGI (HCC-2998 colon): 56.1 µM
TGI (IGROV1 ovarian): 25.2 µM

CCOC(=O)CSc1nc(-c2ccccc2)c(C#N)c(=O)[nH]1
TGI (OVCAR-4 ovarian): > 100 µM
TGI (NCI-H226 lung): > 100 µM
TGI (OVCAR-5 ovarian): > 100 µM
TGI (SK-MEL-28 melanoma): > 100 µM
TGI (CAKI-1 renal): > 100 µM
TGI (EKVX NSCLC): > 100 µM
TGI (SK-MEL-2 melanoma): > 100 µM
TGI (MDA-MB-435): > 100 µM
TGI (SR leukemia): > 100 µM
TGI (PC-3 prostate): > 100 µM
TGI (RPMI-8226 leukemia): > 100 µM
TGI (HS 578T breast): > 100 µM
TGI (SF-268 CNS): > 100 µM
TGI (RXF 393 renal): > 100 µM
TGI (HCC-2998 colon): > 100 µM
TGI (IGROV1 ovarian): > 100 µM
